# Where two headings read alike, the source gives them in different places.
# Tests used:
# [1] = system: MDA-MB-468 cells
# [2] = system: MCF7 cells
# [3] = molecular target: T1, PKA (Homo sapiens, UniProt P17612); experiment: Biochemical PKA assay (flashplate); settings: 100 nM ATP; read-out: PKA inhibition: −log IC50 (converted)
# T1 construct: His; purchased PanVera, USA #R3791; host or cells: E. coli
# Procedure: For the biochemical PKA assay the catalytic subunit of PKA is expressed in E. coli as a His-tagged human recombinant protein and purified accordingly (PanVera, USA; #R3791).
# In order to study the kinase inhibition activity of the compounds according to the invention, a flashplate-based assay has been developed for the serine/threonine kinase, PKA. The assay is run in 96 well plates by incubating 1 ng/well His-PKA (PanVera, USA; #R3791), 0.5 μM/well PKA peptide (#12-394; Upstate, USA) as substrate, 10 μl of compound of invention (test compounds were dissolved as 10 mM solutions in dimethylsulfoxide (DMSO) and subsequently diluted) and 100 nM ATP (including ^33P-ATP) in 100 μl of reaction buffer ([…], pH7,5; 3 mM MgCl2; 3 mM MnCl2; 3 μM Na-Orthovanadat; 1 mM DTT) for 80 minutes at 22° C. The reactions are stopped by adding 100 μl stopping buffer (2% H3PO4 for 5 minutes) and are washed 3 times by using washing buffer (200 μl 1×PBS). Relying on the incorporation of ^33P into the peptide substrate, the detection is based on the adhesion of the phosphorylated peptide to the surface of scintillator-coated Flash plates (Perkin Elmer, USA; #SMP-103). This phosphorylation is measured by counting the plate for 60 sec. using a plate reader (Wallac Microbeta; Perkin Elmer, USA). By using this method the IC50 of the PKA inhibition is determined.
# [4] = molecular target: T2, GST-ΔPH-Akt1 (Homo sapiens, UniProt P31749); experiment: Biochemical ΔPH Akt1 assay (flashplate, 33P incorporation into histone 2B); settings: 100 nM ATP, histone 2B substrate; read-out: ΔPHAkt1 inhibition: IC50
# T2 construct: named GST-deltaPH-Akt1; 107-480aa; cloned in the pAcGl vector; GST (N); made in house; host or cells: SF9 insect cells (baculovirus vector pAcG1), co-expressed with PDK1
# T2 sequence (P31749 107-480, stated change not applied): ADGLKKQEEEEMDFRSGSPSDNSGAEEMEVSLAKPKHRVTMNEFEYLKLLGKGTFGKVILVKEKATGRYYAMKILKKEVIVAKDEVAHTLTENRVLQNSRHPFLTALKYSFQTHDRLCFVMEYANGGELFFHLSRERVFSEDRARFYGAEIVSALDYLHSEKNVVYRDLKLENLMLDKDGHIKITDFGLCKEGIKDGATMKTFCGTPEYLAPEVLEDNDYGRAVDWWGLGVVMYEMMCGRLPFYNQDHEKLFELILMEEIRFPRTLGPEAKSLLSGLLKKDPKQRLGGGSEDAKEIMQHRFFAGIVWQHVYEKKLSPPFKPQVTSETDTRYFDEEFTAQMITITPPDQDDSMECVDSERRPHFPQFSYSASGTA
# Method in brief: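 The enzyme was GST-fused human Akt1 lacking the PH domain (aa 107–480), co-expressed with PDK1 in Sf9 cells, at 100 ng/well, with 100 ng/well histone 2B substrate and 100 nM ATP including 33P-ATP. 33P incorporation was counted on scintillant-coated flashplates.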
# [5] = molecular target: T3, full-length Akt1 (inactive) (Homo sapiens, UniProt P31749); experiment: Biochemical Akt1 assay (full-length Akt1 inactive, PDK1-dependent activation, IMAP); settings: PDK1 and PIP3 vesicles, 50 μM ATP; read-out: Inhibition of Akt1 activation (full-length Akt1, inactive): IC50
# T3 construct: recombinant full-length human Akt1 a containing N-terminal His6 tag; His6 (N); purchased Upstate, UK #14-279; host or cells: baculovirus infected Sf21 insect cells
# T3 sequence (P31749 whole entry): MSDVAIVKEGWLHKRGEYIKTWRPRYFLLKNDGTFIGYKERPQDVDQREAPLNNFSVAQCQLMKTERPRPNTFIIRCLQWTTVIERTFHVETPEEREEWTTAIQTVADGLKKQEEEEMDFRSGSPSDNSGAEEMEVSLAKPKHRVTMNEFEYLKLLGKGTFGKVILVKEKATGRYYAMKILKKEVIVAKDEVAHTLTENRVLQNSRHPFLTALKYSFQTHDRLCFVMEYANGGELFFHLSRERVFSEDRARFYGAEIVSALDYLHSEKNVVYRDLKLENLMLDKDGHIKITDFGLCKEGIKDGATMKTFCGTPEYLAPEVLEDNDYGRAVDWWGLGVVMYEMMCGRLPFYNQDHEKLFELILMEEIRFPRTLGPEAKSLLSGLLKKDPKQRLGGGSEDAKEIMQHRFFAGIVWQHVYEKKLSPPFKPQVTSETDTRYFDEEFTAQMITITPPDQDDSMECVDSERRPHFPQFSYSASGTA
# Procedure: The enzyme is purified using Ni2+/NTA-agarose (Upstate, UK; #14-279).
# The enzyme is purified using Ni2+/NTA-agarose.
# PDK1-dependent activation and subsequent enzymatic activity of Akt1: Activity of purified human Akt1 is routinely measured in an assay in which the enzyme is first activated by PDK1 in the presence of phosphatidylinositol-3,4,5-triphosphate (PIP3). Once activated, Akt1-dependent phosphorylation of a fluorescence labelled peptide substrate is measured by fluorescence polarisation using the IMAP technology (Molecular Devices).
# The phospholipids are prepared as follows: 5 mg DOPC/DOPS are solved in 200 μl 10 mM Tris (pH 7.4) and 300 μg PIP3 are resuspended in 950 μl 10 mM Tris (pH 7.4) by pipetting. 950 μl solved PIP3 are mixed with 50 μl solved DOPC/DOPS and incubated for 2 h at a temperature below 20° C. Then the mixture is subjected to sonification for 30 min. at max. power until a translucent phopholipid vesicle preparation is obtained. Aliquots of the vesicle suspension are frozen at -80° C. until needed, likewise the solved DOPC/DOPS.
# Assays are performed in 384-well plates. Incubations are carried out for 60 min. at room temperature. The reaction buffer mixture contained in a final volume of 25 μl: 10 mM Tris pH 7,4, 10 mM MgCl2. 1 mM DTT, and 0.1 mg/ml BSA. In contrast the activation buffer contained: 50 ng/well Akt1, 20 ng/well PDK1, 1.25 μM peptide substrat, 50 μM ATP, and phospholipid vesicles (1:20). Test compounds are added from stock solutions in DMSO before activation of Akt1 by PDK1. After the incubation the beads (IMAP binding reagent; Molecular Devices; 1:167) are added and the fluorescence polarization is measured (excitation 485 nm, emission 530 nm).
# [6] = system: MCF7 cells; experiment: Cellular proliferation/cytotoxicity assay (Alamar Blue), MCF7; settings: Homo sapiens, MCF7, 48 h, read-out: Anti-proliferative/cytotoxic activity: IC50 MCF7
# [7] = system: MDA-MB-468 cells; experiment: Cellular proliferation/cytotoxicity assay (Alamar Blue), MDA-MB-468; settings: Homo sapiens, MDA-MB-468, 48 h, read-out: Anti-proliferative/cytotoxic activity: IC50 MDA468
# [8] = molecular target: T4, full-length Akt1 (active) (Homo sapiens, UniProt P31749); experiment: Biochemical Akt1 assay (full-length Akt1 active, flashplate, Crosstide); settings: 100 nM ATP, Crosstide substrate; read-out: Akt1 inhibition (full-length Akt1, active): IC50
# T4 construct: recombinant full-length human Akt1, containing N-terminal His6 tag; His6 (N); GST (N); purchased Upstate, UK #14-276; host or cells: baculovirus infected Sf21 insect cells
# T4 sequence (P31749 whole entry): as above
# Text: For the biochemical Akt1 assay recombinant full-length human Akt1, containing N-terminal His6 tag is cloned and expressed in baculovirus infected Sf21 insect cells. Akt1 is activated with GST-MAPKAP-K2 and PDK1, and repurified on Ni2+/NTA-agrose and glutathioneagarose (Upstate, UK; #14-276).
# In order to study the inhibition of Akt1 (full-length version) according to the invention, a flashplate-based assay has been developed.
# The full-length Akt1 assay is a biochemical assay using Akt1 N-terminally fused to GST and co-expressed with PDKI in insect cells. The Akt1 assay is run in 96 well plates by incubating 500 ng/well GST-Akt1, 1 μM Crosstide (N-terminally biotinylated synthetic peptide (KGSGSGRPRTSSFAEG) Upstate, #12-385) as substrate, 10 μl of test compound (test compounds were dissolved as 10 mM solutions in dimethylsulfoxide (DMSO) and subsequently diluted) and 100 nM ATP (including ^33P-ATP) in 100 μl of reaction buffer (50 mM HEPES, pH7,5; 3 mM MgCl2; 3 mM MnCl2; 3 μM Na-Orthovanadat; 1 mM DTT; 1 μg/ml PEG8000) for 60 minutes at 30° C. in 96 well microtiter plates. The reactions are terminated by adding 100 μl stopping buffer (5M NaCl, 35 mM EDTA pH 8.0) for 5 minutes. 190μl of the reaction mixture are transferred into streptavidin-coated Flashplates (Perkin Elmer, #SMP-103) and incubated for further 30 minutes at room temperature. The plates are washed 3 times by using washing buffer (0.9% NaCl). Relying on the incorporation of ^33P into the peptide substrate crosstide, the detection is based on the specific binding of the biotinylated peptide to the streptavidin-coated surface of scintillator-coated flash plates (NEN, USA; #SMP-103). This phosphorylation is measured by counting the plate for 60 sec. using a plate reader (Wallac Microbeta; Perkin Elmer, USA).
Molecule,IC50 [1] [µM],IC50 [2] [µM],IC50 [3] [µM],IC50 [4] [µM],IC50 [5] [µM],IC50 [6] [µM],IC50 [7] [µM],IC50 [8] [µM]
"Aminomethyl-N-(4-{5-[6-(2-hydroxy-ethoxy)-naphthalen-2-yl]-pyrazolo[1,5-c]pyrimidin-7-ylamino}-phenyl)-benzamide [Example 50]",≤ 13.6,≤ 16.9,–,–,–,–,–,–
"Cn1cc(-c2ccc(-c3cc4ccnn4c(Nc4ccc(NC(=O)c5ccc(CN)cc5)cc4)n3)cc2)cn1 [Example 61, 4-Aminomethyl-N-(4-{5-[4-(1-methyl-1H-pyrazol-4-yl)-phenyl]-pyrazolo[1,5-c]pyrimidin-7-ylamino}-phenyl)-benzamide]",–,–,6.31 to 100,≤ 1.75,≤ 5,≤ 16.9,≤ 13.6,≤ 4.03

# Reference: patent publication US7745446B2, “Pyrazolo[1,5-c]pyrimidines” (Bayer Schering Pharma Aktiengesellschaft, priority 2004, dated 2010)
